Experimental data taken from patent publication US6143325A, “Nefazodone dosage form” (priority 1999, dated 2000).
Counter-ions that a name gives are not always drawn.

Assays:
[1] = system: cytochrome P450 (CPY) 3A4; details: cited from earlier work
[2] = cited from earlier work
[3] = relative to tricyclic antidepressants; cited from earlier work
serotonin re-uptake = details: in vivo; cited from earlier work
[4] = USP criteria; cited from earlier work
[5] = cited from earlier work; remark: listed apart in the source
monoamine oxidase = details: cited from earlier work
CYP2D6 = details: cited from earlier work
[6] = nefazodone and metabolite pharmacokinetics in human volunteers: ER v. IR; details: plasma, po
[7] = system: serotonin 5-HT2 receptors; details: in vivo; cited from earlier work
[8] = clinically effective doses of up to 450 mg three times a day; cited from earlier work
rodents = details: in vivo; cited from earlier work
rats = details: mediated through 5-HT2C or 5HT2B receptors; cited from earlier work
humans = details: in vivo; cited from earlier work

## CC(O)c1nn(CCCN2CCN(c3cccc(Cl)c3)CC2)c(=O)n1CCOc1ccccc1 (centres unmarked) [hydroxy-nef, hydroxynefazodone]
[1]
  metabolism by CYP3A4: responsible for the further metabolism

## CCc1nn(CCCN2CCN(c3cccc(Cl)c3)CC2)c(=O)n1CCOc1ccccc1 [Nefazodone, 2-[3-[4-(3-chlorophenyl)-1-piperazinyl]-propyl-]5-ethyl-2,4-dihydro-4-(2-phenoxy-ethyl)-3H-1,2,4-triazol-3-one hydrochloride]
[2]
  dissociation constant (pKa): 6.4
[1]
  inhibition of CYP3A4: inhibits cytochrome P450 (CPY) 3A4
  metabolism by CYP3A4: metabolized by
[3]
  anticholinergic, antihistamine, alpha-adrenergic and sedative activity: decreased anticholinergic, antihistamine, alpha-adrenergic and sedative activity
Serotonin re-uptake
  serotonin re-uptake inhibition: reversibly inhibits serotonin re-uptake
[4]
  solubility in water: sparingly soluble
[5]; in vivo
  first-pass metabolism: significant first-pass metabolism
[5]; plasma concentrations v. dose
  kinetics (dose proportionality): non-linear kinetics
Monoamine oxidase
  monoamine oxidase inhibition: does not inhibit monoamine oxidase
CYP2D6
  inhibition of CYP2D6: weak inhibitor of CYP2D6
[6]; 100 mg
  Tmax: 2 h
[6]; 200 mg
  Tmax: 5 h
[7]
  effect on serotonin 5-HT2 receptors: blocks serotonin 5-HT2 receptors
[8]
  tolerability: well-tolerated

## Clc1cccc(N2CCNCC2)c1 [mCPP, m-chlorophenylpiperazine]
rodents
  effects in rodents: anxiogenic-like properties, causes hypoactivity, hypophagia, oral dyskinesia, penile erection and hyperthermia
rats
  hypoglycemic effect: dose-dependent hypoglycemic effect
CYP2D6
  metabolism by CYP2D6: responsible for the metabolism of mCPP
humans
  effects in humans: increase anxiety in humans (and can cause panic attacks), may precipitate migraine attacks in those susceptible to such attacks, can disrupt sleep, be hypophagic in humans also and may have psychotogenic effects

## O=c1[nH]n(CCCN2CCN(c3cccc(Cl)c3)CC2)c(=O)n1CCOc1ccccc1 [Dione]
[1]
  metabolism by CYP3A4: responsible for the further metabolism
